This passage reports mutagenic call and call results from PubChem BioAssay AID1259408 (Genetic Toxicology Data Bank (GENE-TOX), 2018).

This data set relates to GENE-TOX genotoxicity assays, various organisms and cells. Nature of the data set: GENE-TOX mutagenicity studies. To be noted: for call: Assay Type: In vivo carcinogenicity studies.
[1] abbreviates: Species/Cell Type: Allium cepa, Assay Type: Chromosome aberrations, Assay Code: ALC+D, Dose Response: With dose response, Evaluation Type: Evaluation A (Pre-1980).
The mark [2] stands for this setting: Species/Cell Type: Drosophila melanogaster, Assay Type: Sex-linked recessive lethal gene mutation, Assay Code: SRLT, Evaluation Type: Evaluation A (Pre-1980).
[3] abbreviates: Species/Cell Type: Drosophila melanogaster, Assay Type: Sex-linked recessive lethal gene mutation, Assay Code: SRL+, Evaluation Type: Evaluation A (Pre-1980).
Setting [4] is: Species/Cell Type: Nonhuman, Assay Code: CCG+, Evaluation Type: Evaluation A (Pre-1980).
[5] abbreviates: Species/Cell Type: Nonhuman, Assay Type: Sister-chromatid exchange (SCE) in vivo, Assay Code: SC3+, Evaluation Type: Evaluation B (Post-1980).
The mark [6] stands for this setting: Species/Cell Type: Salmonella typhimurium (one or more of the five standard strains: TA98, TA100, TA1535, TA1537, and TA1538), Assay Type: Histidine reverse gene mutation, Ames assay, Assay Code: SALT, Evaluation Type: Evaluation A (Pre-1980).
Where [7] appears, read: Species/Cell Type: Mammalian polychromatic erythrocytes, Assay Type: Micronucleus test, chromosome aberrations, Assay Code: MNT+, Evaluation Type: Evaluation B (Post-1980).

Activity calls are given as the source filed them. The rule behind the calls is not given here.

`NO`: the mutagenic call by setting is: under setting [1], “active; positive”; (Species/Cell Type: Arabidopsis species, Assay Type: Gene mutation, Assay Code: ARM-, Evaluation Type: Evaluation A (Pre-1980)) “inactive; negative”; (Species/Cell Type: Drosophila melanogaster, Assay Type: Aneuploidy, sex chromosome gain, chromosome aberrations, Assay Code: DAGT, Evaluation Type: Evaluation A (Pre-1980)) “no conclusion”; (Species/Cell Type: Drosophila melanogaster, Assay Type: Aneuploidy, whole sex chromosome loss, chromosome aberrations, Assay Code: DAC-M, Evaluation Type: Evaluation A (Pre-1980)) “inactive; negative”; under setting [2], “no conclusion”; (Species/Cell Type: Escherichia coli polA (W3119 vs P3478), Assay Type: Rec-assay, DNA effects (bacterial DNA repair), Assay Code: RE1+, Evaluation Type: Evaluation A (Pre-1980)) “active; positive”. The mutagenic call runs as follows: (Species/Cell Type: Fischer rat embryo (RLV/1706) cells, Assay Type: Cell transformation, viral enhanced, Assay Code: CTR+, Evaluation Type: Evaluation A (Pre-1980)) “active; positive”; (Species/Cell Type: Glycine max (soybean), Assay Type: Gene mutation, Assay Code: GLM-, Evaluation Type: Evaluation A (Pre-1980)) “inactive; negative”; (Species/Cell Type: Human diploid fibroblasts, Assay Type: Unscheduled DNA synthesis (UDS) in vitro, DNA effects, Assay Code: UDH-, Evaluation Type: Evaluation A (Pre-1980)) “inactive; negative”; (Species/Cell Type: Human lymphocytes or leukocytes, Assay Type: Chromosome aberrations in vitro, Assay Code: CY7-, Evaluation Type: Evaluation A (Pre-1980)) “inactive; negative”; (Species/Cell Type: Mouse (BALB/c-3T3) cells, Assay Type: Cell transformation, Assay Code: CTB-, Evaluation Type: Evaluation A (Pre-1980)) “inactive; negative”; (Species/Cell Type: Neurospora crassa, Assay Type: Forward gene mutation, Assay Code: NEF+, Evaluation Type: Evaluation A (Pre-1980)) “active; positive”. Besides, the mutagenic call is, setting by setting: (Species/Cell Type: Nonhuman, Assay Type: Sister-chromatid exchange (SCE) in vitro, Assay Code: SC2+D, Dose Response: With dose response, Evaluation Type: Evaluation B (Post-1980)) “active; positive”; (Species/Cell Type: Saccharomyces cerevisiae, Assay Type: Forward gene mutation, Assay Code: YEF+, Evaluation Type: Evaluation A (Pre-1980)) “active; positive”; (Species/Cell Type: Saccharomyces cerevisiae, Assay Type: Mitotic recombination or gene conversion, Assay Code: YEH+, Evaluation Type: Evaluation A (Pre-1980)) “active; positive”; (Species/Cell Type: Salmonella typhimurium (one or more of the five standard strains: TA98, TA100, TA1535, TA1537, and TA1538), Assay Type: Histidine reverse gene mutation, Ames assay, Assay Code: SAL-, Evaluation Type: Evaluation A (Pre-1980)) “inactive; negative”; (Species/Cell Type: Schizosaccharomyces pombe, Assay Type: Forward gene mutation, Assay Code: YEY+, Evaluation Type: Evaluation A (Pre-1980)) “active; positive”; (Species/Cell Type: Syrian hamster embryo (SHE) cells, Assay Type: Cell transformation, clonal assay, Assay Code: CTC-, Evaluation Type: Evaluation A (Pre-1980)) “inactive; negative”. Also, the mutagenic call (Species/Cell Type: Vicia faba, Assay Type: Chromosome aberrations, Assay Code: VIC+, Evaluation Type: Evaluation A (Pre-1980)) is “active; positive”. Also, the call (Species/Cell Type: Nonhuman, Assay Code: CCGT, Evaluation Type: Evaluation A (Pre-1980)) is “no conclusion”.
Take `COP(=O)(OC)OC`: the mutagenic call was “active; positive” under setting [3]; “no conclusion” (Species/Cell Type: Escherichia coli polA (W3119 vs P3478), Assay Type: Rec-assay, DNA effects (bacterial DNA repair), Assay Code: RE1T, Evaluation Type: Evaluation A (Pre-1980)); “active; positive” (Species/Cell Type: Human lymphocytes or leukocytes, Assay Type: Chromosome aberrations in vitro, Assay Code: CY7+D, Dose Response: With dose response, Evaluation Type: Evaluation A (Pre-1980)); “active; positive” (Species/Cell Type: Mammalian polychromatic erythrocytes, Assay Type: Micronucleus test, chromosome aberrations, Assay Code: MNT+, Evaluation Type: Evaluation A (Pre-1980)); “active; positive” (Species/Cell Type: Mouse, Sex: Male, Assay Type: Sperm morphology, Assay Code: SPI+, Evaluation Type: Evaluation A (Pre-1980)); “active; positive” (Species/Cell Type: Rodents, Sex: Male, Assay Type: Dominant lethal test, Assay Code: DLT+D, Dose Response: With dose response, Evaluation Type: Evaluation A (Pre-1980)). The mutagenic call (Species/Cell Type: Tradescantia species, Assay Type: Gene mutation, Assay Code: TRM+D, Dose Response: With dose response, Evaluation Type: Evaluation A (Pre-1980)) is “active; positive”. In addition, under setting [4], the call is “active; positive”.
For the compound `CN(CCCC(=O)c1cccnc1)N=O`, for the setting “Species/Cell Type: Rat primary hepatocytes, Assay Type: Unscheduled DNA synthesis (UDS) in vitro, DNA effects, Assay Code: UDP+D, Dose Response: With dose response, Evaluation Type: Evaluation A (Pre-1980)”, the mutagenic call is “active; positive”.
With `N#CCCN`, the mutagenic call is, setting by setting: under setting [2], “no conclusion”; under setting [5], “active; positive”.
Take `C=C(C)CC(C)(C)C`: the mutagenic call under setting [6] is on record as “no conclusion”.
On to `O=[N+]([O-])c1c(O)ccc2ccccc12`, for which the mutagenic call (Species/Cell Type: Salmonella typhimurium (one or more of the five standard strains: TA98, TA100, TA1535, TA1537, and TA1538), Assay Type: Histidine reverse gene mutation, Ames assay, Assay Code: SAL+, Evaluation Type: Evaluation A (Pre-1980)) was “active; positive”.
On to `CC1CN(N=O)CC(C)N1N=O` (stereo not drawn), for which the mutagenic call (Species/Cell Type: Salmonella typhimurium (one or more of the five standard strains: TA98, TA100, TA1535, TA1537, and TA1538), Assay Type: Histidine reverse gene mutation, Ames assay, Assay Code: SAL+*, Activation: With metabolic activation, Evaluation Type: Evaluation A (Pre-1980)) was “active; positive”.
For the compound `CSCC[C@H](N)C(=O)O`, the mutagenic call was “no conclusion” (Species/Cell Type: Mammalian polychromatic erythrocytes, Assay Type: Micronucleus test, chromosome aberrations, Assay Code: MNTT, Evaluation Type: Evaluation A (Pre-1980)); “inactive; negative” (Species/Cell Type: Mouse, Sex: Male, Assay Type: Sperm morphology, Assay Code: SPI-, Evaluation Type: Evaluation A (Pre-1980)); “no conclusion” (Species/Cell Type: Nonhuman, Assay Type: Sister-chromatid exchange (SCE) in vitro, Assay Code: SC2T, Evaluation Type: Evaluation B (Post-1980)).
Regarding `Nc1ccc(Cl)c(N)c1`, the call under setting [4] was “active; positive”.
`O=C1NC(=O)C(c2ccccc2)(c2ccccc2)N1`: the mutagenic call was “active; positive” (Species/Cell Type: Human lymphocytes, Assay Type: Sister-chromatid exchange (SCE) in vivo, Assay Code: SCY+, Evaluation Type: Evaluation B (Post-1980)); “no conclusion” (Species/Cell Type: Human, Sex: Male, Assay Type: Sperm morphology, Assay Code: SPHT, Evaluation Type: Evaluation A (Pre-1980)); “active; positive” under setting [7]; “no conclusion” (Species/Cell Type: Mammalian polychromatic erythrocytes, Assay Type: Micronucleus test, chromosome aberrations, Assay Code: MNTT, Evaluation Type: Evaluation B (Post-1980)); “active; positive” under setting [5].
With `F`, the mutagenic call under setting [1] is “active; positive”; the mutagenic call (Species/Cell Type: Drosophila melanogaster, Assay Type: Aneuploidy, partial sex chromosome loss, chromosome aberrations, Assay Code: DAPT, Evaluation Type: Evaluation A (Pre-1980)) is “no conclusion”; the mutagenic call (Species/Cell Type: Drosophila melanogaster, Assay Type: Aneuploidy, sex chromosome gain, chromosome aberrations, Assay Code: DAG-F, Evaluation Type: Evaluation A (Pre-1980)) is “inactive; negative”; the mutagenic call (Species/Cell Type: Drosophila melanogaster, Assay Type: Aneuploidy, whole sex chromosome loss, chromosome aberrations, Assay Code: DAC+M, Evaluation Type: Evaluation A (Pre-1980)) is “active; positive”; the mutagenic call under setting [3] was “active; positive”; the mutagenic call under setting [2] is recorded as “no conclusion”. Moreover, the mutagenic call is “active; positive” (Species/Cell Type: Human lymphocytes, Assay Type: Sister-chromatid exchange (SCE) in vitro, Assay Code: SCL+, Evaluation Type: Evaluation B (Post-1980)); “no conclusion” (Species/Cell Type: Human lymphocytes, Assay Type: Sister-chromatid exchange (SCE) in vitro, Assay Code: SCLT, Evaluation Type: Evaluation B (Post-1980)); “active; positive” (Species/Cell Type: Human, Assay Type: Sister-chromatid exchange (SCE) in vitro, Assay Code: SC1+, Evaluation Type: Evaluation B (Post-1980)); “no conclusion” (Species/Cell Type: Human, Assay Type: Sister-chromatid exchange (SCE) in vitro, Assay Code: SC1T, Evaluation Type: Evaluation B (Post-1980)); “active; positive” under setting [7]; “inactive; negative” (Species/Cell Type: Neurospora crassa, Assay Type: Aneuploidy, chromosome aberrations, Assay Code: NEN-, Evaluation Type: Evaluation A (Pre-1980)). The mutagenic call was “inactive; negative” (Species/Cell Type: Nonhuman lymphocytes or leukocytes, Assay Type: Chromosome aberrations in vivo, Assay Code: CY%-, Evaluation Type: Evaluation A (Pre-1980)); “inactive; negative” (Species/Cell Type: Nonhuman, Assay Type: Sister-chromatid exchange (SCE) in vivo, Assay Code: SC3-, Evaluation Type: Evaluation A (Pre-1980)); “no conclusion” (Species/Cell Type: Nonhuman, Assay Type: Sister-chromatid exchange (SCE) in vivo, Assay Code: SC3T, Evaluation Type: Evaluation B (Post-1980)); “inactive; negative” (Species/Cell Type: Saccharomyces cerevisiae, Assay Type: Mitotic recombination or gene conversion, Assay Code: YEC-, Evaluation Type: Evaluation A (Pre-1980)); “no conclusion” under setting [6].
As to `CN(N=O)C(=O)NC(N)=O`, the mutagenic call (Species/Cell Type: Arabidopsis species, Assay Type: Gene mutation, Assay Code: ARM+D, Dose Response: With dose response, Evaluation Type: Evaluation A (Pre-1980)) is “active; positive”.
As to `Nc1ccc(-c2nc(NCC(O)CO)c3ccccc3n2)s1` (stereo not drawn), the mutagenic call under setting [6] is listed as “no conclusion”.
Regarding `O=[N+]([O-])c1ccc(/C=C/c2cccc(CO)n2)o1`, the mutagenic call (Species/Cell Type: Human diploid fibroblasts, Assay Type: Unscheduled DNA synthesis (UDS) in vitro, DNA effects, Assay Code: UDH+, Evaluation Type: Evaluation A (Pre-1980)) is “active; positive”.
